Data reported in US10646494B2, “Heterocycle-substituted tetracyclic compounds and methods of use thereof for the treatment of viral diseases” (Merck Sharp & Dohme Corp., priority 2016, dated 2020).
Like-named read-outs stand apart in the source and are kept apart here.

Columns and labels:
Set-up in all cases: species or system Hepatitis C virus (HCV)
[1] = test system: HCV replicon 2B; test: Cell-based HCV replicon assay (Replicon Assay A), replicon 2B; conditions: read-out: Replicon EC50 (nM) 2B, replicon 2B, replicon RNA by real time PCR, cells harvested on day 3
Description: (§1) To measure cell-based anti-HCV activity of compounds of the present invention, two complimentary assays were employed using various replicons. In the first assay (“Replicon Assay A”), replicon cells were seeded at 2000 cells/well in 384-well 384-well flat bottom tissue culture treated clear bottom plate (Corning 3707) in the presence of the test compound. Various concentrations of test compound, typically in 10 serial dilutions, were added to the assay mixture, with the starting concentration ranging from 333.3 nM to […]. The final concentration of DMSO was 0.5%. Fetal bovine serum was 5%, in the assay media. Cells were harvested on day 3 by removing media and washing the cells with a suitable wash buffer. The cells are lysed with the addition of 1× Qiagen lysis buffer (Cat #1062731). The replicon RNA level was measured using real time PCR (TaqMan® EZ RT-PCR, Applied Biosystems 403028) with the following primers and probes: […]
(§2) Cyclophilin RNA was used as endogenous control and was amplified in the same reaction as NS5B (multiplex PCR). The real-time RT-PCR reactions were run on ABI PRISM 7900HT Sequence Detection System using the following program: 50° C. for 2 minutes, 60° C. for 30 minutes, 95° C. for 5 minutes, 40 cycles of 94° C. for 20 sec, 55° C. for 1 minutes.
(§3) The amount of HCV replicon RNA per cell is quantified using a linear regression curve for a known nanogram (ng) amount of HCV replicon total RNA. This is established by plotting the Cycle Threshold values (Ct) from the Neo probe and primer set versus the log (ng) for each HCV replicon total RNA standard. The amount of HCV RNA for each replicon sample is calculated by taking the sample's Ct value, minus the line intercept, divided by the slope of the line. Similarly, the amount of Cyclophilin mRNA per cell is also quantified using a linear regression curve for a known nanogram (ng) amount of HCV replicon total RNA. Again, this is established by plotting the Cycle Threshold values (Ct) from the Cyclophilin probe and primer set versus the log (ng) for each HCV replicon total RNA standard.
(§4) Data was obtained for various compounds of the present invention using the methods described in the Example above, and is presented in the table immediately below. Data for replicons 1A, 1AY93H and 2B were obtained using Replicon Assay A and data for replicons 1B were obtained using Replicon Assay B.

[2] = test system: HCV replicon 1B; test: Cell-based HCV replicon assay (Replicon Assay B), replicon 1B; conditions: replicon RNA by real-time PCR, incubated for 3 days
Description: In an alternate assay (“Replicon Assay B”), 1000 cells were seeded per well in a 384-well collagen coated black plate from Greiner bio-one (Cat #781946) in 5% FBS. Inhibitors of this invention were added at 24 h post-seeding, and the plates were incubated for 3 days. Cells were subsequently lysed with Qiagen lysis buffer (Cat #1062731) to extract the RNA. HCV replicon RNA level was measured by real-time PCR using the RNA-to-CT kit from Applied Biosystem (Cat #4392656) and genotype-specific primers and probes. The amplicon was located within NSSB. The sequence of the PCR primers are as follows: 5B.2F, ATGGACAGGCGCCCTGA (SEQ. ID NO. 1); 5B.2R, […] (SEQ. ID NO. 2); the probe sequence was FAM-labeled CACGCCATGCGCTGCGG (SEQ. ID NO. 3). To detect genotype 1A the primer 1A F, TGCGGAACCGGTGAGTACA and 1A R, […] were used; the probe sequence was FAM-[…].
The real-time RT-PCR reactions were run on ABI PRISM 7900HT or Viia7 Sequence Detection System using the following program: 48° C. for 30 minutes, 95° C. for 10 minutes, 40 cycles of 95° C. for 15 sec, 60° C. for 1 minutes. The 50% effective concentration (EC50) was the drug concentration necessary to achieve an increase in the cycle threshold (CT) of 1 over the projected baseline CT.
as §4

[3] = test system: HCV replicon 1A; test: Cell-based HCV replicon assay (Replicon Assay A), replicon 1A; conditions: replicon RNA by real time PCR, cells harvested on day 3
Description: as §1, §2, §3, §4

[4] = test system: HCV replicon 1A Y93H; test: Cell-based HCV replicon assay (Replicon Assay A), replicon 1AY93H; conditions: read-out: Replicon EC50 (nM) 1A Y93H, replicon 1A Y93H, replicon RNA by real time PCR, cells harvested on day 3
Description: as §1, §2, §3, §4

SMILES	EC50 [1] [nM]	EC50 ([2]; Hepatitis C virus, 72 h) [nM]	EC50 ([3]; Hepatitis C virus, 72 h) [nM]	EC50 [4] [nM]	EC50 ([1]; Hepatitis C virus, 72 h) [nM]	EC50 ([4]; Hepatitis C virus, 72 h) [nM]	EC50 [2] [nM]	EC50 [3] [nM]
COC(=O)N[C@H](C(=O)N1CCC[C@H]1c1ncc(-c2cc(F)c3c(c2)OC(c2cc(C(C)C)no2)n2c-3cc3cc(-c4cnc([C@@H]5CCCN5C(=O)[C@@H](NC(=O)OC)C(C)C)[nH]4)ccc32)[nH]1)C(C)C (single isomer, unassigned) [Compound 25]	0.3	0.0011	0.0012	0.026				
COC(=O)N[C@H](C(=O)N1CCC[C@H]1c1ncc(-c2cc(F)c3c(c2)OC(c2cnns2)n2c-3cc3cc(-c4cnc([C@@H]5CCCN5C(=O)[C@@H](NC(=O)OC)C(C)C)[nH]4)ccc32)[nH]1)C(C)C (single isomer, unassigned) [Compound 22]	0.14	0.0024	0.0015	0.048				
COC(=O)N[C@H](C(=O)N1CCC[C@H]1c1ncc(-c2cc(F)c3c(c2)OC(c2cn4ccccc4n2)n2c-3cc3cc(-c4cnc([C@@H]5CCCN5C(=O)[C@@H](NC(=O)OC)C(C)C)[nH]4)ccc32)[nH]1)C(C)C (stereo partly shown) [Compound 14]		0.0078	0.0057					
COC(=O)N[C@H](C(=O)N1CCC[C@H]1c1ncc(-c2cc(F)c3c(c2)OC(c2cc(C(C)C)no2)n2c-3cc3cc(-c4cnc([C@@H]5CCCN5C(=O)[C@@H](NC(=O)OC)C(C)C)[nH]4)ccc32)[nH]1)C(C)C (mixture of isomers) [Compound 6]		0.0018	0.0017		0.36	0.088		
COC(=O)N[C@H](C(=O)N1CCC[C@H]1c1ncc(-c2cc(F)c3c(c2)OC(c2coc(C4CC4)n2)n2c-3cc3cc(-c4cnc([C@@H]5CCCN5C(=O)[C@@H](NC(=O)OC)C(C)C)[nH]4)ccc32)[nH]1)C(C)C (single isomer, unassigned) [Compound 36]					0.11	0.102	0.0029	0.0023
COC(=O)N[C@H](C(=O)N1CCC[C@H]1c1ncc(-c2cc(F)c3c(c2)OC(c2cc(C4CC4)no2)n2c-3cc3cc(-c4cnc([C@@H]5CCCN5C(=O)[C@@H](NC(=O)OC)C(C)C)[nH]4)ccc32)[nH]1)C(C)C (single isomer, unassigned) [Compound 30]	0.06	0.0017	0.0012	0.026				
COC(=O)N[C@H](C(=O)N1CCC[C@H]1c1ncc(-c2cc(F)c3c(c2)OC(c2csnn2)n2c-3cc3cc(-c4cnc([C@@H]5CCCN5C(=O)[C@@H](NC(=O)OC)C(C)C)[nH]4)ccc32)[nH]1)C(C)C (mixture of isomers) [Compound 37]		0.0036	0.004		1.32	0.857		
COC(=O)N[C@H](C(=O)N1CCC[C@H]1c1ncc(-c2cc(F)c3c(c2)OC(c2coc(C4CC4)n2)n2c-3cc3cc(-c4cnc([C@@H]5CCCN5C(=O)[C@@H](NC(=O)OC)C(C)C)[nH]4)ccc32)[nH]1)C(C)C (single isomer, unassigned) [Compound 35]		0.003	0.0034					
CCc1cc([C@@H]2Oc3cc(-c4cnc([C@@H]5CCCN5C(=O)[C@@H](NC(=O)OC)C(C)C)[nH]4)cc(F)c3-c3cc4cc(-c5cnc([C@@H]6CCCN6C(=O)[C@@H](NC(=O)OC)C(C)C)[nH]5)ccc4n32)on1 (single isomer, unassigned) [Compound 8]	1.23		0.004	0.603				
COC(=O)N[C@H](C(=O)N1CCC[C@@H]1c1ncc(-c2ccc3c(c2)cc2n3C(c3cnco3)Oc3cc(-c4cnc([C@H]5CCCN5C(=O)[C@H](NC(=O)OC)C(C)C)[nH]4)cc(F)c3-2)[nH]1)C(C)C (single isomer, unassigned) [Compound 17]				0.716	3.96			0.0327
COC(=O)N[C@H](C(=O)N1CCC[C@H]1c1ncc(-c2cc(F)c3c(c2)OC(c2nc4ccccc4o2)n2c-3cc3cc(-c4cnc([C@@H]5CCCN5C(=O)[C@@H](NC(=O)OC)C(C)C)[nH]4)ccc32)[nH]1)C(C)C (single isomer, unassigned) [Compound 20]	0.32	0.0026		0.075				0.0023
COC(=O)N[C@H](C(=O)N1CCC[C@H]1c1ncc(-c2ccc3c(c2)OC(c2ccc(C)o2)n2c-3cc3cc(-c4cnc([C@@H]5CCCN5C(=O)[C@@H](NC(=O)OC)C(C)C)[nH]4)ccc32)[nH]1)C(C)C (stereo partly shown) [Compound 42]			0.0309		6.16	5.01		
COC(=O)N[C@H](C(=O)N1CCC[C@@H]1c1ncc(-c2ccc3c(c2)cc2n3C(c3cnco3)Oc3cc(-c4cnc([C@H]5CCCN5C(=O)[C@H](NC(=O)OC)C(C)C)[nH]4)cc(F)c3-2)[nH]1)C(C)C (single isomer, unassigned) [Compound 18]	3.54			18.4				0.0023
COC(=O)N[C@H](C(=O)N1CCC[C@H]1c1ncc(-c2cc(F)c3c(c2)OC(c2cc4ccccn4n2)n2c-3cc3cc(-c4cnc([C@@H]5CCCN5C(=O)[C@@H](NC(=O)OC)C(C)C)[nH]4)ccc32)[nH]1)C(C)C (single isomer, unassigned) [Compound 41]	0.57			0.317				0.0019
CCc1nnc(C2Oc3cc(-c4cnc([C@@H]5CCCN5C(=O)[C@@H](NC(=O)OC)C(C)C)[nH]4)cc(F)c3-c3cc4cc(-c5cnc([C@@H]6CCCN6C(=O)C(NC(=O)OC)C(C)C)[nH]5)ccc4n32)s1 (single isomer, unassigned) [Compound 33]		0.0026						0.0028
COC(=O)N[C@H](C(=O)N1CCC[C@H]1c1ncc(-c2cc(F)c3c(c2)O[C@@H](c2cc(C(C)C)no2)n2c-3cc3cc(-c4cnc([C@@H]5CCCN5C(=O)[C@@H](NC(=O)OC)C(C)C)[nH]4)ccc32)[nH]1)C(C)C (single isomer, unassigned) [Compound 10]	1.05			1.43				0.0027
COC(=O)N[C@H](C(=O)N1CCC[C@H]1c1ncc(-c2cc(F)c3c(c2)OC(c2nc(C(C)C)ns2)n2c-3cc3cc(-c4cnc([C@@H]5CCCN5C(=O)[C@@H](NC(=O)OC)C(C)C)[nH]4)ccc32)[nH]1)C(C)C (single isomer, unassigned) [Compound 31]			0.0013	5.65	1.64			
